Entries after “also recorded” stand apart in the source; their conditions may differ. Read-outs that look alike come from different tables or passages of the source.
How the values were obtained:
dCK-C3S-S74E = experiment: Enzymatic assay (PK/LDH coupled), dC phosphorylation by dCK in the presence of ATP; assay type: biochemical, human
In short: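 Continuous PK/LDH-coupled readout tracked NADH fluorescence loss at 460 nm while 1 mM ATP and 100 µM dC were turned over by 100 nM (or 50 nM) dCK-C3S-S74E in HEPES pH 7.5 buffer with MgCl2, DTT and KCl. Linear-range slopes normalized to no-compound control; IC50 fitted by nonlinear regression across compound concentrations.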

[1] = Acute in vivo toxicity, unique IP injection; conditions: male, mouse, in vivo; Swiss mice, IP, unique injection; read-out: Maximum tolerated dose
Description: (§1) To evaluate the in vivo toxicity selected compounds were injected by intraperitoneal (IP) route to 7 weeks-old male Swiss mice (n = 2) at 10, 20, 40, 50, or 80 mg/kg by unique injection. […] Compounds were administered in their hydrochloride salt forms. Mice were then observed closely for the next one hour, then every hour for 8 h. Observations were continued for 72 h for signs of pain or toxicity such as change in the behavior and in the activity in the cage (decreased locomotion) or change in the appearance (curved back, eyes half-closed, bristle hair, hips hollowed out). In vivo toxicity of compound OR0642 at 40 and 80 mg/kg was also assessed in the NOD-SCID-IL2Rγc null (NSG) mice model for 2 weeks in the presence and absence of dT to confirm the safety of the compound. […]. Blood samples were collected and spun at 10,000 × g prior to collecting the plasma supernatants. All plasma samples were frozen at −80 °C before sample processing. 13 μl of each plasma sample was mixed with 33 μl of acetonitrile to precipitate proteins and extract the compound. Samples were vortexed for 5 min and then placed in an ultrasonic bath for 1 min. The precipitated proteins were sedimented by centrifugation (15,000 × g, 5 min, 16 °C). Supernatants were transferred to a microplate to be analyzed by LC–MS/MS. All samples were analyzed with a UHPLC coupled to a Shimadzu LC-MS 8030 triple quadrupole. The solutions of a standard range, prepared with plasma from untreated mice, were analyzed in the same series of injections.

CCRF-CEM cell line = experiment: CCRF-CEM proliferation, compound alone (nonspecific toxicity); assay type: cell-based, human; conditions: for nonspecific cellular toxicity: CCRF-CEM, absence of dT + dC; for Cell proliferation of the CCRF-CEM cell line Mean (% prolif): 72 h
Description: The dCK cellular assay was set up to assess the ability to inhibit dCK activity in a cellular model. The model was developed with a T-cell acute lymphoblastic leukemia cell line (CCRF-CEM), because of its high dependence on the SP, thus on dCK activity. Cellular assays were performed to assess the inhibition of cell proliferation under two conditions: (i) in the presence of the compound alone to determine the nonspecific effect on cells, independent of dCK (nonspecific toxicity) and (ii) in the presence of an inhibitor of the DNP to determine the ability of compounds to inhibit dCK and decrease tumor proliferation (activity on dCK). The inhibitor of the DNP chosen for the experiments was thymidine (dT), a physiological inhibitor of ribonucleotide reductase which arrests cell proliferation in phase S. The dTTP produced via thymidine kinase from dT acts as a RNR inhibitor by an allosteric regulation of the R1 subunit. The addition of the nucleoside deoxycytidine (dC) in the medium allows the rescue of cell proliferation by passing only through the salvage pathway, mediated by dCK. dC needs to be added exogenously to mimic physiological concentrations because it is not present in the cell culture medium, on the contrary to mouse model, in which it is naturally present in the serum. Therefore, cell proliferation under these conditions (+dT +dC) is dCK dependent and it is possible to determine the IC50 of dCK inhibitors on the inhibition of cell proliferation. Results are expressed as % cell proliferation relative to the control with DMSO.
The amount of reduced dye formed by metabolically active cells was quantified by its fluorescence measured at 560 nm (excitation) and 590 nm (emission) in a microplate reader (CLARIOstar, BMG Labtech). A blank well without cells was used as a background control. Each experiment was performed at least three times (with technical triplicates) and data are presented as the mean ± SD.

[2] = Plasma pharmacokinetics after IP administration; assay type: in vivo; conditions: male, Swiss, mouse, mice
Description: as §1

[3] = presence of ATP, [dCK] = 100 nM, read-out: ENZYMATIC ASSAY IC50
[4] = dose 40 mg/Kg, read-out: T ½ (converted)
[5] = presence of ATP, [dCK] = 50 nM (footnote A), read-out: ENZYMATIC ASSAY IC50

Sequence of dCK-C3S-S74E (P27707 whole entry S74E, form open): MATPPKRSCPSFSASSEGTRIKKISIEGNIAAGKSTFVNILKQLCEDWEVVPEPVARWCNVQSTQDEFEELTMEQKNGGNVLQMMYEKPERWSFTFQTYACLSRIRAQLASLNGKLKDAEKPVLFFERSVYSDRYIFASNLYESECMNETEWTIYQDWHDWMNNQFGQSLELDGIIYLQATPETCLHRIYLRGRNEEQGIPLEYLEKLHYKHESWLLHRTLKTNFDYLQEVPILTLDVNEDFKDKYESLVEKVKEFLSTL

| SMILES | Enzymatic activity (ATP) Mean (% activity) (dCK-C3S-S74E; 0.16 µM) | Enzymatic activity (ATP) Mean (% activity) (dCK-C3S-S74E; 0.31 µM) | Enzymatic activity (ATP) Mean (% activity) (dCK-C3S-S74E; 0.63 µM) | Enzymatic activity (ATP) Mean (% activity) (dCK-C3S-S74E; 1.25 µM) | Enzymatic activity (ATP) Mean (% activity) (dCK-C3S-S74E; 2.5 µM) | Enzymatic activity (ATP) Mean (% activity) (dCK-C3S-S74E; 5 µM) | Enzymatic activity (ATP) Mean (% activity) (dCK-C3S-S74E; 10 µM) | Enzymatic activity (ATP) Mean (% activity) (dCK-C3S-S74E; 20 µM) | Enzymatic activity (ATP) Mean (% activity) (dCK-C3S-S74E; 40 µM) | IC50 (dCK-C3S-S74E; [3]) | Enzymatic activity (ATP) Mean (% activity) (dCK-C3S-S74E; 0.04 µM) | Enzymatic activity (ATP) Mean (% activity) (dCK-C3S-S74E; 0.08 µM) | MTD at 72 h [1] | Enzymatic activity (ATP) Mean (% activity) (dCK-C3S-S74E; 0.02 µM) | other results |
| --- | --- | --- | --- | --- | --- | --- | --- | --- | --- | --- | --- | --- | --- | --- | --- |
| Cc1ccc(-c2ccc(CN3CCN(C)CC3)cc2)cc1Nc1nc(-c2nccc(N)n2)cs1 [OR0274] | 86.8% | 81.3% | 62.9% | 44.6% | 27.8% | 11.8% | 11.9% | 7.8% | 5.0% | 1033 ± 10 nM | – | – | – | – | – |
| Cc1ccc(-c2ccc(CCN3CCN(C)CC3)cc2)cc1Nc1nc(-c2nccc(N)n2)cs1 [OR0325] | 87.3% | 73.6% | 56.4% | 34.0% | 19.3% | 12.3% | 11.6% | 8.1% | 4.4% | 826 ± 78 nM | – | – | – | – | – |
| CCCN(c1nc(-c2nccc(N)n2)cs1)c1cc(-c2ccc(CCN3CCN(C)CC3)cc2)ccc1C [OR0345] | 85.5% | 56.9% | 22.9% | 5.3% | -9.9% | -2.1% | -7.8% | – | – | 315 ± 50 nM | 96.0% | 95.1% | – | – | – |
| CCCN(c1nc(-c2nc(N)cc(N)n2)cs1)c1cc(-c2ccc(CCN3CCN(C)CC3)cc2)ccc1C [OR0600] | 43.5% | 11.4% | 0.0484% | 1.1% | -0.9% | -8.7% | -3.1% | – | – | 121 ± 21 nM | 92.1% | 78.6% | – | – | – |
| CCCN(c1nc(-c2nc(N)cc(N)n2)cs1)c1cc(-c2ccc(CCN3CCN(C)CC3)nc2)ccc1C [OR0602] | 23.6% | 0.751% | 4.3% | 6.6% | 6.1% | 4.8% | – | – | – | – | 81.1% | 60.0% | 10 mg/kg | 88.7% | nonspecific cellular toxicity (CCRF-CEM cell line): without an increase in nonspecific cellular toxicity; Cmax ([2]; dose 10 mg/Kg): 960 ± 40 nM; Tmax ([2]; dose 10 mg/Kg): 1 h; half-life ([2]; dose 10 mg/Kg, read-out: T ½ (converted)): 2 ± 0.233 h; IC50 (dCK-C3S-S74E; ATP, technical limit of the assay, read-out: enzymatic inhibition IC50): 77 nM |
| CCCN(c1nc(-c2nc(N)cc(N)n2)cs1)c1cc(-c2ccc(S(=O)(=O)N3CCN(C)CC3)c(OC)c2)ccc1C [OR0635] | 15.4% | 4.7% | 4.6% | 2.0% | 1.6% | – | – | – | – | – | 82.4% | 61.6% | > 40 mg/kg | 74.5% | Cmax ([2]; dose 40 mg/Kg): 2000 ± 200 nM; Tmax ([2]; dose 40 mg/Kg): 1.5 h; half-life [2, 4]: 6.22 ± 3.38 h; half-life ([2]; read-out: half-life): > 5 h; Enzymatic activity (ATP) Mean (% activity) (dCK-C3S-S74E; 0.01 µM): 71.4%; IC50 (dCK-C3S-S74E; [5]): 66 ± 11 nM |
| CCCN(c1nc(-c2nc(N)cc(N)n2)cs1)c1cc(-c2ccc(S(=O)(=O)N3CCN(C)CC3)cc2C(F)(F)F)ccc1C [OR0642] | 43.5% | 8.3% | 4.2% | 2.4% | -0.5% | – | – | – | – | – | 65.5% | 63.0% | > 80 mg/kg | 80.5% | nonspecific cellular toxicity (CCRF-CEM cell line): lack of non-specific toxicity; also recorded: absence of nonspecific toxicity; Cmax ([2]; dose 20 mg/Kg): 800 ± 200 nM; Tmax ([2]; dose 20 mg/Kg): 2 h; half-life ([2]; dose 20 mg/Kg, read-out: T ½ (converted)): 7 ± 3 h; Cmax ([2]; dose 40 mg/Kg): 4100 ± 1500 nM; Tmax ([2]; dose 40 mg/Kg): 5 h; half-life [2, 4]: > 8 h; half-life ([2]; read-out: half-life): > 7 h; Enzymatic activity (ATP) Mean (% activity) (dCK-C3S-S74E; 0.01 µM): 79.2%; IC50 (dCK-C3S-S74E; [5]): 106 ± 30 nM |
| Cc1ccc(NC(=O)c2ccc(CN3CCN(C)CC3)cc2)cc1Nc1nc(-c2nccc(N)n2)cs1 [dCKi1] | 93.7% | 94.8% | 91.7% | 77.3% | 51.8% | 30.3% | 11.5% | 3.9% | 3.1% | 2660 ± 608 nM | – | – | – | – | Cell proliferation of the CCRF-CEM cell line Mean (% prolif) (CCRF-CEM cell line; compound 10 µM alone): 76.3% |
| Cc1ccc(NC(=O)c2ccc(CN3CCN(C)CC3)cc2)cc1Nc1nc(-c2nc(N)cc(N)n2)cs1 [dCKi2, N-(3-((4-(4,6-diaminopyrimidin-2-yl)thiazol-2-yl)amino)-4-methylphenyl)-4-((4-methylpiperazin-1-yl)methyl)benzamide] | 97.2% | 85.8% | 62.1% | 35.4% | 16.5% | 3.9% | 3.9% | 2.6% | 5.2% | 903 ± 37 nM | – | – | – | – | Cell proliferation of the CCRF-CEM cell line Mean (% prolif) (CCRF-CEM cell line; compound 10 µM alone): 78.4% |
| Cc1cn([C@H]2C[C@H](O)[C@@H](CO)O2)c(=O)[nH]c1=O [dT, thymidine] | – | – | – | – | – | – | – | – | – | – | – | – | – | – | Cell proliferation of the CCRF-CEM cell line Mean (% prolif) (CCRF-CEM cell line; dT 111 µM alone): 33.2% |
